From patent US7713991B2, “Imidazo[[1, 5-A] pyridine derivatives and methods for treating aldosterone mediated diseases” (Novartis AG, priority 2003, dated 2010)

target: aldosterone synthase (Rattus norvegicus, UniProt P30099); experiment: aldosterone synthase inhibitory activity in vitro; assay type: biochemical; settings: rat adrenal glomerulosa homogenate, corticosterone substrate; read-out: inhibits the aldosterone synthase activity, IC50 value
Sequence (P30099 35-510): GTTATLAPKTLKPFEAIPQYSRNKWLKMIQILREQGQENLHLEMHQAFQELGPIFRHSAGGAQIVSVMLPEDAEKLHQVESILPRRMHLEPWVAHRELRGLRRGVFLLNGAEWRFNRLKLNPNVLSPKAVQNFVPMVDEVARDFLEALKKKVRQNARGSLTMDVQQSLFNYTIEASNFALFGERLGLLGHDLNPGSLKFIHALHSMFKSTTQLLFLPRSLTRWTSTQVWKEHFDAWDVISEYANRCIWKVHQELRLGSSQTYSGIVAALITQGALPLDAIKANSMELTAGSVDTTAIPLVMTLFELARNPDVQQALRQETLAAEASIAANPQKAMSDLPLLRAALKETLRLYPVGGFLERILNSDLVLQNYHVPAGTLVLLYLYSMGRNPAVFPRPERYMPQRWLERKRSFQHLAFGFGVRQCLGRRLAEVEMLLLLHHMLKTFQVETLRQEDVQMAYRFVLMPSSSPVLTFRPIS
Source text: The aldosterone synthase inhibitory activity in vitro may be determined as follows:
Adult male Sprague-Dawley rats weighing 125-150 g are obtained from Harlan Farms. All animals are caged in pairs and maintained under standard conditions of light and temperature. The animals are placed on a sodium depleted diet (0.01-0.02%) from Harland Teklad, Madison Wis. (Cat. No. TD90228) and maintained on normal drinking water ad libitum. The animals are maintained on this diet for two to four weeks prior to harvesting the adrenal glomerulosa cells. The rats are killed by CO2 inhalation, and the adrenals are immediately removed and placed in the same ice-cold buffer used during homogenization and assay of the enzyme preparation. The adrenals are de-capsulated to obtain the glomerulosa tissue. The tissue is homogenized in a glass homogenizer containing Tris assay buffer (8.5 mM MgCl2, 2.7 mM CaCl2, 3.13 mM KCl, 7.59 mM NaCl, 0.1% TEA and 50 mM Tris HCl adjusted to pH 7.4). […] The plates are scanned for radioactivity with a Bioscan System 200 Imaging Scanner (Bioscan, Ish. D.C.). The two products of the aldosterone synthase, 18—OH-corticosterone and aldosterone are scraped and counted in a liquid scintillation counter (Beckman LS6000TA, Beckman Instr., Palo Alto, Calif.).
The slope (Hill Coefficient) and x intercept (IC50) are determined by linear regression of the experimental data.

SMILES | IC50
Cl.c1ccc2c(-c3cccc4cncn34)cccc2c1 [Example 1, 5-Naphthalen-1-yl-imidazo[1,5-a]pyridine hydrochloride] | ~50 nM

system: not given; experiment: not given; settings: not given

SMILES | melting point
Cl.c1ccc2c(-c3cccc4cncn34)coc2c1 | 96 to 98 °C
Cl.c1ccc(-c2ccccc2-c2cccc3cncn23)cc1 | 200 to 201 °C
Cl.O=C(OCc1ccccc1)N1CC=C(c2cccc3cncn23)CC1 | 149 to 152 °C
Cl.c1ccc2c(-c3cccc4cncn34)cccc2c1 [Example 1, 5-Naphthalen-1-yl-imidazo[1,5-a]pyridine hydrochloride] | 222 to 223 °C
Cl.c1ccc(-c2ccc(-c3cccc4cncn34)cc2)cc1 | 240 to 242 °C
